Consider 7 molecules from PMC6280375 (The Journal of Venomous Animals and Toxins Including …, 2018).

In the assay the test system is BjussuLAAO-II. Particulars: read-out: Km (mM) / Mean ± SD; 0.1 M HEPES pH 7, 45 °C, 2 mM OPD, 1 U/mL HRP.

On to `N[C@@H](Cc1ccc(O)cc1)C(=O)O` [Tyr], for which the Km is 1.1 ± 0.1 mM. Consider `N[C@@H](Cc1cnc[nH]1)C(=O)O` [His], for which the Km was 14.1 ± 1.9 mM.

As for `CSCC[C@H](N)C(=O)O` [Met], the Km turned out to be 0.6 ± 0.1 mM. The result for `NC(=O)CC[C@H](N)C(=O)O` [Gln] reads 3.2 ± 0.3 mM. On to `CC(C)C[C@H](N)C(=O)O` [Leu], for which the Km stood at 0.3 mM. `CC[C@H](C)[C@H](N)C(=O)O` [Ile]: the Km was 2 ± 0.1 mM. With `N[C@@H](Cc1ccccc1)C(=O)O` [Phe], the Km was 0.1 mM.
